In patent publication US6919188B1, “Pseudomycin production by Pseudomonas syringae” (Eli Lilly and Company, priority 1999, dated 2005):
Entries after “also recorded” stand apart in the source; their conditions may differ. Starred links: 1 amine or outer side, 2 acyl side, 3 side chain; linkers in the order of their positions; H or OH if unused. Positions of bridges follow the written chain, without caps; N, C: chain ends. Non-standard residues stand in square brackets, D forms with d. Residues, ends and D or L forms follow the SMILES beside them. ξ: configuration not given here. *: point of attachment. Tetradecanoyl(3R-OH) = CCCCCCCCCCC[C@@H](O)CC(=O)*; Asp(3S-OH) = N[C@H](C(=O)O)[C@H](O)C(=O)O; Thr(4-Cl) = N[C@H](C(=O)O)[C@H](O)CCl; ξAsp(3ξ-OH) = NC(C(=O)O)C(O)C(=O)O; X3 = O=C(C(N[*:1])C(O)CCl)[*:2]; X1 = CCCCCCCCCCC(O)C(O)CC(=O)*; aThr = C[C@H](O)[C@H](N)C(=O)O; X2 = C/C=C(/N[*:1])C(=O)[*:2]; dDab = NCC[C@@H](N)C(=O)O; Dab = NCC[CH](N)C(=O)O; Dhb = C/C=C(\N)C(=O)O

What was measured:
[1] = Toxicity of pseudomycins (general statement); settings: no species or dose given
[2] = system: fungi, including important fungal pathogens in both humans and plants; settings: isolated pseudomycins; spectrum of fungi; cited from earlier work
[3] = system: fungi, including important fungal pathogens in both humans and plants; test: Antifungal activity of isolated pseudomycins (general statements, literature); assay type: cell-based; settings: comparison with pseudomycins A, C, certain fungi

| Structure (SMILES) | toxicity [1] | antifungal activity [2] | potency against fungi compared to the other preferred pseudomycins [3] |
| --- | --- | --- | --- |
| C/C=C1/NC(=O)C(C(C)O)NC(=O)C(CCN)NC(=O)C(CCCCN)NC(=O)C(CC(=O)O)NC(=O)C(CCN)NC(=O)C(NC(=O)CC(O)C(O)CCCCCCCCCC)COC(=O)C(C(O)CCl)NC(=O)C(C(O)C(=O)O)NC1=O (centres unmarked) [Pseudomycin A] (X1-S[Dab]DK[Dab]T[X2][ξAsp(3ξ-OH)][X3]; ester 1-C; configuration not given here) | generally acceptable toxicity | activity against a wide variety of fungi; also recorded: wide spectrum antifungal activity |  |
| C/C=C1\NC(=O)[C@H]([C@H](C)O)NC(=O)[C@H](CCN)NC(=O)[C@H](CCCCN)NC(=O)[C@H](CC(=O)O)NC(=O)[C@@H](CCN)NC(=O)[C@@H](NC(=O)C[C@H](O)CCCCCCCCCCC)COC(=O)[C@H]([C@H](O)CCl)NC(=O)[C@H]([C@H](O)C(=O)O)NC1=O [Pseudomycin B] ({Tetradecanoyl(3R-OH)}-S[dDab]DK[Dab][aThr][Dhb][Asp(3S-OH)][Thr(4-Cl)]; ester 1-C) | generally acceptable toxicity; also recorded: lower level of toxicity | activity against a wide variety of fungi; also recorded: wide spectrum antifungal activity | greater potency against certain fungi |
